Data on 28 molecules can be found in patent US10442808B2, “Pyrazolo pyrimidine derivatives and their use as MALT1 inhbitors” (NOVARTIS AG, priority 2014, dated 2019).

One assay relates to IL2 promoter. The experiment in a line: Human IL2 promoter reporter gene assay (RGA) in Jurkat cells. The assay is classed as cell-based. To be noted: […], heading: IL2 reporter gene assay IC50, anti-CD28 mAb + PMA stimulation 5.5 h. The procedure: Human IL2 Promoter Reporter Gene Assay (RGA) in Jurkat Cells
The transfected Jurkat clone K22 290_H23 was propagated in RPMI 1640 supplemented with 10% heat inactivated fetal calf serum, 50 μM 2-mercaptoethanol and 1 mg/ml Geneticin. The cell concentration should not exceed 1×10e6/ml during culturing. The cells should not exceed passage 30. Prior to the assay the cells were washed and prepared to the concentration of 2×10e6 cells/ml.
Compound dilutions were made as 2×-concentrated solutions then diluted ½ by addition to cells. Two hundred and fifty μl of compound dilution and 250 μl of cells were mixed together in wells of a 96-deep well plate. Cells/compounds premix were incubated 30 min at 37° C. and 5% CO2 directly in the deep well plate.
After pre-incubation of cells with compounds, cells were stimulated with anti-CD28 mAb (clone 15E8) at 3 μg/ml+PMA at 1 μg/ml. Both co-stimulants were diluted in culture medium at a 10×-concentrated solution. 10 μl of co-stimulants were pipetted into the white 96-well plates and 100 μl of cell/compound mix was immediately added in duplicates. The cells were stimulated for 5.5 h at 37° C. and 5% CO2.
After cell stimulation, 50 μl of BriteLitePlus reagent (Perkin Elmer) was added to each well and the bioluminescence was measured with a Wallac EnVision reader (Perkin Elmer).
(In general: In a reporter assay the amount or activity of a reporter protein is the signal.)
As for `COc1ncc(NC(=O)Nc2cnc3cc(Cl)nn3c2-c2ccncc2)cc1Cl` [Example 69, 1-(5-chloro-6-methoxypyridin-3-yl)-3-(2-chloro-7-(pyridin-4-yl)pyrazolo[1,5-a]pyrimidin-6-yl)urea], the concentration for half-maximal inhibition (IC50) – broadly, the concentration needed to halve the response being measured – was determined as 0.206 µM.

Turning to `CN(C)C1(c2c(NC(=O)Nc3cnc(-n4nccn4)c(Cl)c3)cnc3cc(Cl)nn23)CC1` [Example 88, 1-(5-chloro-6-(2H-1,2,3-triazol-2-yl)pyridin-3-yl)-3-(2-chloro-7-(1-(dimethylamino)cyclopropyl)pyrazolo[1,5-a]pyrimidin-6-yl)urea], the IC50 was 0.084 µM. Same read-out and setting: the same measure for `COCC1(c2c(NC(=O)Nc3ccnc(C(F)(F)F)c3)cnc3cc(Cl)nn23)CC1` [Example 77, 1-(2-chloro-7-(1-(methoxymethyl)cyclopropyl)pyrazolo[1,5-a]pyrimidin-6-yl)-3-(2-(trifluoromethyl)pyridin-4-yl)urea]: 0.046 µM; for `O=C(Nc1cnc(-n2nccn2)c(C(F)(F)F)c1)Nc1cnc2cc(Cl)nn2c1-c1ccco1` [Example 63, 1-(6-(2H-1,2,3-triazol-2-yl)-5-(trifluoromethyl)pyridin-3-yl)-3-(2-chloro-7-(furan-2-yl)pyrazolo[1,5-a]pyrimidin-6-yl)urea]: 0.091 µM. For the molecule `CCOc1ncc(NC(=O)Nc2cnc3cc(Cl)nn3c2C(C)C)cc1Cl` [Example 25, 1-(5-chloro-6-ethoxypyridin-3-yl)-3-(2-chloro-7-isopropylpyrazolo[1,5-a]pyrimidin-6-yl)urea], the IC50 amounted to 0.248 µM. The same measure, in the same setting: the result for `C[C@H](OCCN(C)C)c1c(NC(=O)Nc2cnc(-n3nccn3)c(Cl)c2)cnc2cc(Cl)nn12` [Example 82, (S)-1-(5-chloro-6-(2H-1,2,3-triazol-2-yl)pyridin-3-yl)-3-(2-chloro-7-(1-(2-(dimethylamino)ethoxy)ethyl)pyrazolo[1,5-a]pyrimidin-6-yl)urea] reads 0.016 µM; that for `CC(C)c1c(NC(=O)Nc2cnc(-n3nccn3)c(Cl)c2)cnc2cc(Cl)nn12` [Example 21, 1-(5-chloro-6-(2H-1,2,3-triazol-2-yl)pyridin-3-yl)-3-(2-chloro-7-isopropylpyrazolo[1,5-a]pyrimidin-6-yl)urea], 0.307 µM; that for `COCC1(c2c(NC(=O)Nc3ccnc(C(F)(F)F)c3)cnc3cc(C)nn23)CC1` [Example 79, 1-(7-(1-(methoxymethyl)cyclopropyl)-2-methylpyrazolo[1,5-a]pyrimidin-6-yl)-3-(2-(trifluoromethyl)pyridin-4-yl)urea], 0.089 µM.

On to `CC(C)c1c(NC(=O)Nc2cc(C(F)(F)F)ncc2-n2nccn2)cnc2cc(Cl)nn12` [Example 112, 1-(5-(2H-1,2,3-triazol-2-yl)-2-(trifluoromethyl)pyridin-4-yl)-3-(2-chloro-7-isopropylpyrazolo[1,5-a]pyrimidin-6-yl)urea], for which the IC50 was 0.058 µM.

`COc1ncc(NC(=O)Nc2cnc3cc(Cl)nn3c2[C@H](C)OC)cc1Cl` [Example 9, (S)-1-(5-chloro-6-methoxypyridin-3-yl)-3-(2-chloro-7-(1-methoxyethyl)pyrazolo [1,5-a]pyrimidin-6-yl)urea]: the IC50 is 0.019 µM. Still for that read-out and setting: the same measure for `CN(C)C(=O)c1c(NC(=O)Nc2cnc(-n3nccn3)c(Cl)c2)cnc2cc(Cl)nn12` [Example 70, 2-chloro-6-(3-(5-chloro-6-(2H-1,2,3-triazol-2-yl)pyridin-3-yl)ureido)-N,N-dimethylpyrazolo[1,5-a]pyrimidine-7-carboxamide]: 0.063 µM; for `Cc1cnn(-c2ncc(NC(=O)Nc3cnc4cc(Cl)nn4c3C(C)C)cc2Cl)n1` [Example 22, 1-(5-chloro-6-(4-methyl-2H-1,2,3-triazol-2-yl)pyridin-3-yl)-3-(2-chloro-7-isopropylpyrazolo[1,5-a]pyrimidin-6-yl)urea]: 0.214 µM. Still for that read-out and setting: the result for `CO[C@@H](C)c1c(NC(=O)Nc2cnc(-n3nccn3)c(C(F)F)c2)cnc2cc(Cl)nn12` [Example 89, (S)-1-(2-chloro-7-(1-methoxyethyl)pyrazolo [1,5-a]pyrimidin-6-yl)-3-(5-(difluoromethyl)-6-(2H-1,2,3-triazol-2-yl)pyridin-3-yl)urea] reads 0.025 µM; that for `CC(C)c1c(NC(=O)Nc2cnc(N3CCCS3(=O)=O)c(C(F)(F)F)c2)cnc2cc(Cl)nn12` [Example 27, 1-(2-chloro-7-isopropylpyrazolo[1,5-a]pyrimidin-6-yl)-3-(6-(1,1-dioxidoisothiazolidin-2-yl)-5-(trifluoromethyl)pyridin-3-yl)urea], 0.507 µM; that for `COC[C@@H](C)c1c(NC(=O)Nc2cnc(-n3nccn3)c(C(F)(F)F)c2)cnc2cc(Cl)nn12` [Example 110, (S)-1-(6-(2H-1,2,3-triazol-2-yl)-5-(trifluoromethyl)pyridin-3-yl)-3-(2-chloro-7-(1-methoxypropan-2-yl)pyrazolo[1,5-a]pyrimidin-6-yl)urea], 0.041 µM. Same read-out and setting: the result for `COCC(C)(OC)c1c(NC(=O)Nc2cnc(-n3nccn3)c(Cl)c2)cnc2cc(Cl)nn12` (stereo not shown) [Example 81, 1-(5-chloro-6-(2H-1,2,3-triazol-2-yl)pyridin-3-yl)-3-(2-chloro-7-(1,2-dimethoxypropan-2-yl)pyrazolo[1,5-a]pyrimidin-6-yl)urea] reads 0.157 µM. Consider `CN1CCCC[C@H]1c1c(NC(=O)Nc2cnc(-n3nccn3)c(Cl)c2)cnc2cc(Cl)nn12` [Example 84, (S)-1-(5-chloro-6-(2H-1,2,3-triazol-2-yl)pyridin-3-yl)-3-(2-chloro-7-(1-methylpiperidin-2-yl)pyrazolo[1,5-a]pyrimidin-6-yl)urea], for which the 50% inhibitory concentration (IC50) came out at 0.049 µM. The same measure, in the same setting: the result for `Cc1cc2ncc(NC(=O)Nc3cnc(-n4nccn4)c(Cl)c3)c(C3(C)CCCO3)n2n1` (stereo not shown) [Example 104, 1-(5-chloro-6-(2H-1,2,3-triazol-2-yl)pyridin-3-yl)-3-(2-methyl-7-(2-methyltetrahydrofuran-2-yl)pyrazolo[1,5-a]pyrimidin-6-yl)urea] reads 0.134 µM; that for `COCC(OC)c1c(NC(=O)Nc2ccnc(C(F)(F)F)c2)cnc2cc(Cl)nn12` (stereo not shown) [Example 109, 1-(2-chloro-7-(1,2-dimethoxyethyl)pyrazolo[1,5-a]pyrimidin-6-yl)-3-(2-(trifluoromethyl)pyridin-4-yl)urea], 0.199 µM; that for `COC(c1ccccc1)c1c(NC(=O)Nc2cnc(-n3nccn3)c(Cl)c2)cnc2cc(Cl)nn12` (stereo not shown) [Example 49, 1-(5-chloro-6-(2H-1,2,3-triazol-2-yl)pyridin-3-yl)-3-(2-chloro-7-(methoxy(phenyl)methyl)pyrazolo[1,5-a]pyrimidin-6-yl)urea], 0.095 µM.

In the case of `COCCC(OC)c1c(NC(=O)Nc2cnc(-n3nccn3)c(Cl)c2)cnc2cc(Cl)nn12` (stereo not shown) [Example 64, 1-(5-chloro-6-(2H-1,2,3-triazol-2-yl)pyridin-3-yl)-3-(2-chloro-7-(1,3-dimethoxypropyl)pyrazolo[1,5-a]pyrimidin-6-yl)urea], the IC50 came out at 0.032 µM. The same measure, in the same setting: the same measure for `CO[C@@H](C)c1c(NC(=O)Nc2ccnc(C(F)(F)F)c2)cnc2cc(F)nn12` [Example 7, (S)-1-(2-fluoro-7-(1-methoxyethyl)pyrazolo[1,5-a]pyrimidin-6-yl)-3-(2-(trifluoromethyl)pyridin-4-yl)urea]: 0.033 µM; for `CC(C)c1c(NC(=O)Nc2ccc(-n3nccn3)c(Cl)c2)cnc2cc(Cl)nn12` [Example 20, l-(3-chloro-4-(2H-1,2,3-triazol-2-yl)phenyl)-3-(2-chloro-7-isopropylpyrazolo [1,5-a]pyrimidin-6-yl)urea]: 0.1 µM; for `C[C@@H](O)c1c(NC(=O)Nc2cnc(-n3nccn3)c(C(F)(F)F)c2)cnc2cc(Cl)nn12` [Example 113, (R)-1-(6-(2H-1,2,3-triazol-2-yl)-5-(trifluoromethyl)pyridin-3-yl)-3-(2-chloro-7-(1-hydroxyethyl)pyrazolo[1,5a]pyrimidin-6-yl)urea]: 0.078 µM. On the same count and under the same terms, the result for `COCCO[C@@H](C)c1c(NC(=O)Nc2cnc(OC(F)F)c(Cl)c2)cnc2cc(Cl)nn12` [Example 97, (S)-1-(5-chloro-6-(difluoromethoxy)pyridin-3-yl)-3-(2-chloro-7-(1-(2-methoxyethoxy)ethyl)pyrazolo[1,5-a]pyrimidin-6-yl)urea] reads 0.218 µM; that for `COCC1(c2c(NC(=O)Nc3cnc(-n4nccn4)c(Cl)c3)cnc3cc(Cl)nn23)CCCO1` (stereo not shown) [Example 91, 1-(5-chloro-6-(2H-1,2,3-triazol-2-yl)pyridin-3-yl)-3-(2-chloro-7-(2-(methoxymethyl)tetrahydrofuran-2-yl)pyrazolo[1,5-a]pyrimidin-6-yl)urea], 0.05 µM; that for `O=C(Nc1cnc(-n2nccn2)c(Cl)c1)Nc1cnc2cc(Cl)nn2c1C1CC12CCOC2` (stereo not shown) [Example 68, 1-(5-chloro-6-(2H-1,2,3-triazol-2-yl)pyridin-3-yl)-3-(2-chloro-7-(5-oxaspiro[2.4]heptan-1-yl)pyrazolo[1,5-a]pyrimidin-6-yl)urea], 0.076 µM.

The assay is the same for the next values; noted with them: anti-CD28 mAb + PMA stimulation 5.5 h.
Regarding `CO[C@@H](C)c1c(NC(=O)Nc2cc(C(F)(F)F)cn(C)c2=O)cnc2cc(Cl)nn12` [Example 3, (S)-1-(2-chloro-7-(1-methoxyethyl)pyrazolo[1,5-a]pyrimidin-6-yl)-3-(1-methyl-2-oxo-5-(trifluoromethyl)-1,2-dihydropyridin-3-yl)urea], the concentration for half-maximal inhibition (IC50) was 0.131 µM.
